Assay results reported in ChEMBL document CHEMBL5500363, “Discovery of novel ocotillol derivatives modulating glucocorticoid receptor/NF-κB signaling for the treatment of sepsis” (Eur J Med Chem, 2024).

What was measured:
[1] = Cytotoxicity against mouse RAW264.7 cells assessed as cell viability at 40 uM incubated for 24 hrs by MTT assay relative to control; assay type: toxicity, cell-based; conditions: read-out: Activity
RAW264.7 [2] = test: Inhibition of LPS-induced NO production in mouse RAW264.7 cells at 5 uM pretreated for 2 hrs followed by LPS stimulation for 24 hrs by Griess assay relative to control; assay type: functional; conditions: time 26 hrs
RAW264.7 [3] = test: Inhibition of LPS-induced NO production in mouse RAW264.7 cells at 10 uM pretreated for 2 hrs followed by LPS stimulation for 24 hrs by Griess assay relative to control; assay type: functional; conditions: time 26 hrs
RAW264.7 [4] = test: Inhibition of LPS-induced NO production in mouse RAW264.7 cells at 20 uM pretreated for 2 hrs followed by LPS stimulation for 24 hrs by Griess assay relative to control; assay type: functional; conditions: time 26 hrs
RAW264.7 [5] = test: Inhibition of LPS-induced NO production in mouse RAW264.7 cells pretreated for 2 hrs followed by LPS stimulation for 24 hrs by Griess assay; assay type: functional, cell-based
RAW264.7 [6] = test: Cytotoxicity against mouse RAW264.7 cells assessed as cell viability at 40 uM incubated for 24 hrs by MTT assay; assay type: toxicity, cell-based; conditions: raw264.7, 24 h

Row | IC50 (RAW264.7 [5]) [µM] | Structure (SMILES) | viability at 24 h, 40 µM [1] [%] | inhibition at 5 µM (RAW264.7 [2]) [%] | inhibition at 10 µM (RAW264.7 [3]) [%] | inhibition at 20 µM (RAW264.7 [4]) [%] | Activity (RAW264.7 [6])
1 | 17.9 | CC(C)(O)[C@@H]1CC[C@@](C)(C2CC[C@]3(C)[C@@H]2[C@H](O)C[C@@H]2[C@@]4(C)CC[C@H](OC(=O)CCC(=O)Nc5nncs5)C(C)(C)[C@@H]4CC[C@]23C)O1 (some centres undefined) | > 90 | 7.78 | 21.3 | 58.6 | 
2 | 18.9 | CC(C)(O)[C@H]1CC[C@@](C)(C2CC[C@]3(C)[C@@H]2[C@H](O)C[C@@H]2[C@@]4(C)Cc5sc(N)nc5C(C)(C)[C@@H]4CC[C@]23C)O1 (some centres undefined) | > 90 | 19 | 23.9 | 37.7 | 
3 | 26.1 | CC(C)(O)[C@@H]1CC[C@@](C)(C2CC[C@]3(C)[C@@H]2[C@H](O)C[C@@H]2[C@@]4(C)Cc5sc(N)nc5C(C)(C)[C@@H]4CC[C@]23C)O1 (some centres undefined) | > 90 | 11.4 | 23.5 | 36.6 | 
4 | 41.6 | CC(C)(O)[C@@H]1CC[C@@](C)(C2CC[C@]3(C)[C@@H]2[C@H](O)C[C@@H]2[C@@]4(C)Cc5sc(NC(=O)OC(F)(F)F)nc5C(C)(C)[C@@H]4CC[C@]23C)O1 (some centres undefined) | > 90 | 6.07 | 6.84 | 22.2 | 
5 | 11.4 | CC(C)(O)[C@H]1CC[C@@](C)(C2CC[C@]3(C)[C@@H]2[C@H](O)C[C@@H]2[C@@]4(C)CC[C@H](OC(=O)CCC(=O)Nc5nnc(Cl)s5)C(C)(C)[C@@H]4CC[C@]23C)O1 (some centres undefined) | > 90 | 28.6 | 47.3 | 57.9 | 
6 |  | Cc1nnc(NC(=O)CCC(=O)O[C@H]2CC[C@]3(C)[C@H]4C[C@@H](O)[C@@H]5C([C@]6(C)CC[C@H](C(C)(C)O)O6)CC[C@@]5(C)[C@]4(C)CC[C@H]3C2(C)C)s1 (some centres undefined) |  |  |  |  | Toxic
7 | 50.6 | CC(C)(C)OC(=O)NCCCCCCCCCCC(=O)Nc1nc2c(s1)C[C@]1(C)[C@H]3C[C@@H](O)[C@@H]4C([C@]5(C)CC[C@@H](C(C)(C)O)O5)CC[C@@]4(C)[C@]3(C)CC[C@H]1C2(C)C (some centres undefined) | > 90 | 1.99 | 6.18 | 17.1 | 
8 |  | CC(=O)Nc1nc2c(s1)C[C@]1(C)[C@H]3C[C@@H](O)[C@@H]4C([C@]5(C)CC[C@H](C(C)(C)O)O5)CC[C@@]4(C)[C@]3(C)CC[C@H]1C2(C)C (some centres undefined) |  |  |  |  | Toxic
9 |  | CC(C)(C)OC(=O)NCCCCCCCCCCC(=O)Nc1nc2c(s1)C[C@]1(C)[C@H]3C[C@@H](O)[C@@H]4C([C@]5(C)CC[C@H](C(C)(C)O)O5)CC[C@@]4(C)[C@]3(C)CC[C@H]1C2(C)C (some centres undefined) |  |  |  |  | Toxic
10 | 40.3 | CC(C)(O)[C@H]1CC[C@@](C)(C2CC[C@]3(C)[C@@H]2[C@H](O)C[C@@H]2[C@@]4(C)CC[C@H](OC(=O)CCC(=O)Nc5nncs5)C(C)(C)[C@@H]4CC[C@]23C)O1 (some centres undefined) | > 90 | 10.8 | 18.5 | 35.7 | 
11 | 9.17 | CC(C)(C)OC(=O)CC(=O)Nc1nc2c(s1)C[C@]1(C)[C@H]3C[C@@H](O)[C@@H]4C([C@]5(C)CC[C@@H](C(C)(C)O)O5)CC[C@@]4(C)[C@]3(C)CC[C@H]1C2(C)C (some centres undefined) | > 90 | 24.5 | 40.7 | 67.2 | 
12 | 29.8 | CC(C)(O)[C@@H]1CC[C@@](C)(C2CC[C@]3(C)[C@@H]2[C@H](O)C[C@@H]2[C@@]4(C)CC[C@H](OC(=O)CCC(=O)Nc5nnc(Cl)s5)C(C)(C)[C@@H]4CC[C@]23C)O1 (some centres undefined) | > 90 | 32.5 | 43.4 | 45.7 | 
13 | 35.6 | CC(C)(O)[C@H]1CC[C@@](C)(C2CC[C@]3(C)[C@@H]2[C@H](O)C[C@@H]2[C@@]4(C)Cc5sc(NC(=O)OC(F)(F)F)nc5C(C)(C)[C@@H]4CC[C@]23C)O1 (some centres undefined) | > 90 | 8.01 | 21.2 | 37.5 | 
14 | 33.1 | CC(C)(C)OC(=O)NCCCCCCCC(=O)Nc1nc2c(s1)C[C@]1(C)[C@H]3C[C@@H](O)[C@@H]4C([C@]5(C)CC[C@@H](C(C)(C)O)O5)CC[C@@]4(C)[C@]3(C)CC[C@H]1C2(C)C (some centres undefined) | > 90 | 19.9 | 29.9 | 39.4 | 
15 | 24.5 | CC(C)(C)OC(=O)NCCCCCC(=O)Nc1nc2c(s1)C[C@]1(C)[C@H]3C[C@@H](O)[C@@H]4C([C@]5(C)CC[C@@H](C(C)(C)O)O5)CC[C@@]4(C)[C@]3(C)CC[C@H]1C2(C)C (some centres undefined) | > 90 | 27.4 | 43.6 | 48.5 | 
16 | 11.6 | CC(C)(C)OC(=O)CCCC(=O)Nc1nc2c(s1)C[C@]1(C)[C@H]3C[C@@H](O)[C@@H]4C([C@]5(C)CC[C@@H](C(C)(C)O)O5)CC[C@@]4(C)[C@]3(C)CC[C@H]1C2(C)C (some centres undefined) | > 90 | 20.4 | 41.2 | 60.4 | 
17 | 16.5 | CC(C)(C)OC(=O)CCC(=O)Nc1nc2c(s1)C[C@]1(C)[C@H]3C[C@@H](O)[C@@H]4C([C@]5(C)CC[C@H](C(C)(C)O)O5)CC[C@@]4(C)[C@]3(C)CC[C@H]1C2(C)C (some centres undefined) | > 90 | 11.1 | 22.5 | 39.1 | 
18 | 25.7 | CC(C)(O)[C@@H]1CC[C@@](C)(C2CC[C@]3(C)[C@@H]2[C@H](O)C[C@@H]2[C@@]4(C)Cc5sc(NC(=O)C(F)(F)F)nc5C(C)(C)[C@@H]4CC[C@]23C)O1 (some centres undefined) | > 90 | 14.2 | 20.6 | 30.9 | 
19 | 17.5 | CC(C)(C)OC(=O)CC(=O)Nc1nc2c(s1)C[C@]1(C)[C@H]3C[C@@H](O)[C@@H]4C([C@]5(C)CC[C@H](C(C)(C)O)O5)CC[C@@]4(C)[C@]3(C)CC[C@H]1C2(C)C (some centres undefined) | > 90 | 14.3 | 29.8 | 50 | 
20 |  | CC(C)(O)[C@H]1CC[C@@](C)(C2CC[C@]3(C)[C@@H]2[C@H](O)C[C@@H]2[C@@]4(C)Cc5sc(NC(=O)C(F)(F)F)nc5C(C)(C)[C@@H]4CC[C@]23C)O1 (some centres undefined) |  |  |  |  | Toxic
21 |  | CC(C)(O)[C@H]1CC[C@@](C)(C2CC[C@]3(C)[C@@H]2[C@H](O)C[C@@H]2[C@@]4(C)CC[C@H](OC(=O)CCC(=O)Nc5nnc(Br)s5)C(C)(C)[C@@H]4CC[C@]23C)O1 (some centres undefined) |  |  |  |  | Toxic
22 |  | CC(C)(C)OC(=O)NCCCC(=O)Nc1nc2c(s1)C[C@]1(C)[C@H]3C[C@@H](O)[C@@H]4C([C@]5(C)CC[C@H](C(C)(C)O)O5)CC[C@@]4(C)[C@]3(C)CC[C@H]1C2(C)C (some centres undefined) |  |  |  |  | Toxic
23 |  | CC(=O)Nc1nc2c(s1)C[C@]1(C)[C@H]3C[C@@H](O)[C@@H]4C([C@]5(C)CC[C@@H](C(C)(C)O)O5)CC[C@@]4(C)[C@]3(C)CC[C@H]1C2(C)C (some centres undefined) |  |  |  |  | Toxic
24 |  | CC(C)(C)OC(=O)NCCCC(=O)Nc1nc2c(s1)C[C@]1(C)[C@H]3C[C@@H](O)[C@@H]4C([C@]5(C)CC[C@@H](C(C)(C)O)O5)CC[C@@]4(C)[C@]3(C)CC[C@H]1C2(C)C (some centres undefined) |  |  |  |  | Toxic
25 |  | CC(C)(C)OC(=O)NCCCCCCCC(=O)Nc1nc2c(s1)C[C@]1(C)[C@H]3C[C@@H](O)[C@@H]4C([C@]5(C)CC[C@H](C(C)(C)O)O5)CC[C@@]4(C)[C@]3(C)CC[C@H]1C2(C)C (some centres undefined) |  |  |  |  | Toxic
26 |  | CC(C)(C)OC(=O)NCCCCCC(=O)Nc1nc2c(s1)C[C@]1(C)[C@H]3C[C@@H](O)[C@@H]4C([C@]5(C)CC[C@H](C(C)(C)O)O5)CC[C@@]4(C)[C@]3(C)CC[C@H]1C2(C)C (some centres undefined) |  |  |  |  | Toxic
27 | 52 | CC(C)(C)OC(=O)CCCC(=O)Nc1nc2c(s1)C[C@]1(C)[C@H]3C[C@@H](O)[C@@H]4C([C@]5(C)CC[C@H](C(C)(C)O)O5)CC[C@@]4(C)[C@]3(C)CC[C@H]1C2(C)C (some centres undefined) | > 90 | 14.2 | 13.3 | 18.1 | 
28 |  | Cc1nnc(NC(=O)CCC(=O)O[C@H]2CC[C@]3(C)[C@H]4C[C@@H](O)[C@@H]5C([C@]6(C)CC[C@@H](C(C)(C)O)O6)CC[C@@]5(C)[C@]4(C)CC[C@H]3C2(C)C)s1 (some centres undefined) |  |  |  |  | Toxic
29 | 10.3 | CC(C)(O)[C@@H]1CC[C@@](C)(C2CC[C@]3(C)[C@@H]2[C@H](O)C[C@@H]2[C@@]4(C)CC[C@H](OC(=O)CCC(=O)Nc5nnc(Br)s5)C(C)(C)[C@@H]4CC[C@]23C)O1 (some centres undefined) | > 90 | 34.8 | 47 | 70.2 | 

Row | Structure (SMILES) | IC50 (RAW264.7 [5]) [µM] | viability at 24 h, 40 µM [1] [%] | inhibition at 5 µM (RAW264.7 [2]) [%] | inhibition at 10 µM (RAW264.7 [3]) [%] | inhibition at 20 µM (RAW264.7 [4]) [%] | Activity (RAW264.7 [6])
30 | CC(C)(O)[C@@H]1CC[C@@](C)(C2CC[C@]3(C)[C@@H]2[C@H](O)C[C@@H]2[C@@]4(C)CC[C@H](O)C(C)(C)[C@@H]4CC[C@]23C)O1 (some centres undefined) | 30.4 |  | 5.58 | 8.85 | 22.3 | 
31 | CC(C)(O)[C@H]1CC[C@@](C)(C2CC[C@]3(C)[C@@H]2[C@H](O)C[C@@H]2[C@@]4(C)CC[C@H](O)C(C)(C)[C@@H]4CC[C@]23C)O1 (some centres undefined) | 20.8 |  | 13 | 19.7 | 30.3 | 
